T1: UVR8^D96N/D107N (constitutive monomer) (Arabidopsis thaliana, UniProt Q9FN03, D96N/D107N)
T1 sequence (Q9FN03 1-440 D96N/D107N): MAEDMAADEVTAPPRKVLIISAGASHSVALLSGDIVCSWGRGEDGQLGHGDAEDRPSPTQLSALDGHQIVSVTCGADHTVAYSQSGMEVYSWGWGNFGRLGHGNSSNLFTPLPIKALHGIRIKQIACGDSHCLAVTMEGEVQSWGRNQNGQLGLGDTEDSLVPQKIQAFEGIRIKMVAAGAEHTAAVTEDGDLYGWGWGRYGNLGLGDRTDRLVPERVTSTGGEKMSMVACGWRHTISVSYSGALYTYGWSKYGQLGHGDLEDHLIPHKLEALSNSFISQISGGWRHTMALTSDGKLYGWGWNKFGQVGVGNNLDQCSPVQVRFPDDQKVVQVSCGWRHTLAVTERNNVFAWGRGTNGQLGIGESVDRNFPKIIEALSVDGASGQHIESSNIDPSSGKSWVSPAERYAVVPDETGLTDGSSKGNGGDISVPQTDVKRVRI

T2: His-SUMO-UVR8 (wild-type UV … LOCUS8) (Arabidopsis thaliana), Q9FN03
T2 chain: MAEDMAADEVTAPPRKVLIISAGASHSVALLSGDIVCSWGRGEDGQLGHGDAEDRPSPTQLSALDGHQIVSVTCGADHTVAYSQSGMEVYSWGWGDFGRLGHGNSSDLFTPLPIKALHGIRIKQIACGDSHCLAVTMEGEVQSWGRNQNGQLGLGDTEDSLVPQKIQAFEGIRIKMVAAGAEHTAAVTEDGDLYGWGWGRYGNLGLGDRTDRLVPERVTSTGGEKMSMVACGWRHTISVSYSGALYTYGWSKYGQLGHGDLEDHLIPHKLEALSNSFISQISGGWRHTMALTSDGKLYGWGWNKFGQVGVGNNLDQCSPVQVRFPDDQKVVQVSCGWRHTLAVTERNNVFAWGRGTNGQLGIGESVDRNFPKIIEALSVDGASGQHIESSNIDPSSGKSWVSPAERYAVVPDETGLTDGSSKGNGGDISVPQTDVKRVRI


What was measured:
[1] = molecular target: T1, UVR8^D96N/D107N (constitutive monomer); experiment: nanoDSF Tm increase with purified recombinant protein; assay type: binding
[2] = molecular target: UVR8 (UV RESISTANCE LOCUS8) (Arabidopsis thaliana, UniProt Q9FN03); experiment: MST; assay type: binding
[3] = molecular target: T2, His-SUMO-UVR8 (wild-type UV … LOCUS8) …; experiment: SEC; conditions: remark: other sources report otherwise

Row | Molecule | nanoDSF Tm increase with purified recombinant protein [1] | Kd [2] [µM] | stoichiometry N [3]
1 | O=C(/C=C/c1ccc(O)cc1)c1c(O)cc(O)cc1O [NGC, naringenin chalcone] | significant increase in Tm was observed when NGC was incubated with the three monomeric forms | ~12 | –
2 | His-SUMO-UVR8 (wild-type UV … LOCUS8), Q9FN03 1-440 (natural protein) MAEDMAADEVTAPPRKVLIISAGASHSVALLSGDIVCSWGRGEDGQLGHGDAEDRPSPTQLSALDGHQIVSVTCGADHTVAYSQSGMEVYSWGWGDFGRLGHGNSSDLFTPLPIKALHGIRIKQIACGDSHCLAVTMEGEVQSWGRNQNGQLGLGDTEDSLVPQKIQAFEGIRIKMVAAGAEHTAAVTEDGDLYGWGWGRYGNLGLGDRTDRLVPERVTSTGGEKMSMVACGWRHTISVSYSGALYTYGWSKYGQLGHGDLEDHLIPHKLEALSNSFISQISGGWRHTMALTSDGKLYGWGWNKFGQVGVGNNLDQCSPVQVRFPDDQKVVQVSCGWRHTLAVTERNNVFAWGRGTNGQLGIGESVDRNFPKIIEALSVDGASGQHIESSNIDPSSGKSWVSPAERYAVVPDETGLTDGSSKGNGGDISVPQTDVKRVRI | – | – | 2
